{"source": "patent US20210221785A1", "about": "“AMINO-PYRIMIDONYL DERIVATIVES, A PROCESS FOR THEIR PREPARATION AND PHARMACEUTICAL COMPOSITIONS CONTAINING THEM” (LES LABORATOIRES SERVIER, priority 2018, published 2021)", "key": {"[1]": {"target": "T1, His-His-USP7 (aa208-560, |C315A|) (Homo sapiens, UniProt Q93009, C315A)", "T1 construct": "His-His-USP7 (aa208-560, |C315A|); His-His (N)", "T1 sequence (Q93009 208-560 C315A)": "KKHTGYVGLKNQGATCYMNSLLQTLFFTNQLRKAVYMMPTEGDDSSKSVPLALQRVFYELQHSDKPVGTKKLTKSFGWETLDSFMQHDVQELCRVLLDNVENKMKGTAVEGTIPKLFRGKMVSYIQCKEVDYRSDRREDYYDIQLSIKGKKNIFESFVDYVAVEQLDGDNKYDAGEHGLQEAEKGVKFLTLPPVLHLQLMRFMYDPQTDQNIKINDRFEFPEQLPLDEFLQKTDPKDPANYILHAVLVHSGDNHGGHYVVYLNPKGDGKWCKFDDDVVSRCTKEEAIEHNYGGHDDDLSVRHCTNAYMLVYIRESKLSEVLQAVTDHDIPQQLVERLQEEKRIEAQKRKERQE", "experiment": "Evaluation of the inhibition of USP7 by the Fluorescence Intensity (FLINT) readings", "format": "biochemical", "details": "0.25 nM His-His-USP7, compound incubated 60 minutes at 30° C., 500 nM Ubiquitin-Rhodamine-110 substrate; 50% reduction in kinetic rate", "how_it_was_run": "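0.25 nM His-His-USP7 (aa208–560, C315A) preincubated 60 min at 30 °C with compound in 100 mM Bicine pH 8.0, 0.01% Triton X-100, 1 mM TCEP, 10% DMSO. Reaction started with 500 nM ubiquitin-rhodamine-110 and fluorescence (Ex485/Em535) read every 3 min for 21 min. IC50 derived from kinetic-rate reduction over an 11-point curve, 4-parameter fit.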"}, "[2]": {"tested_on": "Z138 mantle cell lymphoma tumour cell lines", "experiment": "In vitro cytotoxicity, MTT assay", "format": "cell-based", "details": "Homo sapiens, Z-138, 96 h, Z138 cells exposed to the test compounds for 96 hours; cell viability vs DMSO treated cells", "how_it_was_run": "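Z138 cells exposed to compounds for 96 hours, then MTT added for 4 hours. Viable cells quantified from formazan absorbance at 540 nm.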"}}}
{"smiles": "Nc1cccc(C#C[C@@]2(F)CC[C@@H](C(=O)N3CC[C@](O)(Cn4cnc(Oc5ccc(F)cc5)c(N)c4=O)C(F)(F)C3)[C@H](c3ccccc3)C2)n1", "note": "[Example 163, 5-amino-3-{[(4S)-1-[(1R,2R,4R)-4-[2-(6-aminopyridin-2-yl)ethynyl]-4-fluoro-2-phenylcyclohexanecarbonyl]-3,3-difluoro-4-hydroxypiperidin-4-yl]methyl}-6-(4-fluorophenoxy)-3,4-dihydropyrimidin-4-one]", "values": [{"measurement": "IC50", "setting": "[1]", "value": 52.4, "unit": "nM"}, {"measurement": "IC50", "setting": "[2]", "value": 0.0277, "unit": "µM"}]}
{"smiles": "CO[C@]1(C#Cc2cccc(N)n2)CC[C@@H](C(=O)N2CC[C@](O)(Cn3cnc(Oc4ccc(F)cc4)c(N)c3=O)C(F)(F)C2)[C@H](c2ccccc2)C1", "note": "[Example 164, 5-amino-3-{[(4S)-1-[(1R,2R,4R)-4-[2-(6-aminopyridin-2-yl)ethynyl]-4-methoxy-2-phenylcyclohexanecarbonyl]-3,3-difluoro-4-hydroxypiperidin-4-yl]methyl}-6-(4-fluorophenoxy)-3,4-dihydropyrimidin-4-one]", "values": [{"measurement": "IC50", "setting": "[1]", "value": 24.6, "unit": "nM"}, {"measurement": "IC50", "setting": "[2]", "value": 0.0165, "unit": "µM"}]}
{"smiles": "CO[C@]1(C#Cc2cccnn2)CC[C@@H](C(=O)N2CC[C@](O)(Cn3cnc(Oc4ccc(F)cc4)c(N)c3=O)C(F)(F)C2)[C@H](c2ccccc2)C1", "note": "[Example 165, 5-amino-3-{[(4S)-3,3-difluoro-4-hydroxy-1-{[(1R,2R,4R)-4-methoxy-2-phenyl-4-[2-(pyridazin-3-yl)ethynyl]cyclohexyl]carbonyl}piperidin-4-yl]methyl}-6-(4-fluorophenoxy)pyrimidin-4-one]", "values": [{"measurement": "IC50", "setting": "[1]", "value": 5.57, "unit": "nM"}, {"measurement": "IC50", "setting": "[2]", "value": 0.00415, "unit": "µM"}]}
{"smiles": "CO[C@]1(C#Cc2ccccn2)CC[C@@H](C(=O)N2CC[C@](O)(Cn3cnc(Oc4ccc(F)cc4)c(N)c3=O)C(F)(F)C2)[C@H](c2ccccc2)C1", "note": "[Example 166, 5-amino-3-{[(4S)-3,3-difluoro-4-hydroxy-1-[(1R,2R,4R)-4-methoxy-2-phenyl-4-[2-(pyridin-2-yl)ethynyl]cyclohexanecarbonyl]piperidin-4-yl]methyl}-6-(4-fluorophenoxy)-3,4-dihydropyrimidin-4-one]", "values": [{"measurement": "IC50", "setting": "[1]", "value": 11.2, "unit": "nM"}, {"measurement": "IC50", "setting": "[2]", "value": 0.00943, "unit": "µM"}]}
{"smiles": "Nc1c(Oc2ccc(F)cc2)ncn(C[C@@]2(O)CCN(C(=O)[C@@H]3CC[C@](F)(C#Cc4ncccn4)C[C@H]3c3ccccc3)CC2(F)F)c1=O", "note": "[Example 167, 5-amino-3-{[(4S)-3,3-difluoro-1-[(1R,2R,4R)-4-fluoro-2-phenyl-4-[2-(pyrimidin-2-yl)ethynyl]cyclohexanecarbonyl]-4-hydroxypiperldin-4-yl]methyl}-6-(4-fluorophenoxy)-3,4-dihydropyrimidin-4-one]", "values": [{"measurement": "IC50", "setting": "[1]", "value": 27.2, "unit": "nM"}, {"measurement": "IC50", "setting": "[2]", "value": 0.0124, "unit": "µM"}]}
{"smiles": "Nc1c(Oc2ccc(F)cc2)ncn(C[C@@]2(O)CCN(C(=O)[C@@H]3CC[C@](F)(C#Cc4cccnn4)C[C@H]3c3ccccc3)CC2(F)F)c1=O", "note": "[Example 168, 5-amino-3-{[(4S)-3,3-difluoro-1-{[(1R,2R,4R)-4-fluoro-2-phenyl-4-[2-(pyridazin-3-yl)ethynyl]cyclohexyl]carbonyl}-4-hydroxypiperidin-4-yl]methyl}-6-(4-fluorophenoxy)pyrimidin-4-one]", "values": [{"measurement": "IC50", "setting": "[1]", "value": 3.48, "unit": "nM"}, {"measurement": "IC50", "setting": "[2]", "value": 0.00157, "unit": "µM"}]}
{"smiles": "CO[C@@H]1CC[C@@](C#Cc2cc(C)cnn2)(C(=O)N2CC[C@](O)(Cn3cnc(Oc4ccc(F)cc4)c(N)c3=O)C(F)(F)C2)[C@@H](c2ccccc2)C1", "note": "[Example 169, 5-amino-3-{[(4S)-3,3-difluoro-4-hydroxy-1-[(1R,2R,4R)-4-methoxy-1-[2-(5-methylpyridazin-3-yl)ethynyl]-2-phenylcyclohexanecarbonyl]piperidin-4-yl]methyl}-6-(4-fluorophenoxy)-3,4-dihydropyrimidin-4-one]", "values": [{"measurement": "IC50", "setting": "[1]", "value": 8.8, "unit": "nM"}, {"measurement": "IC50", "setting": "[2]", "value": 0.00218, "unit": "µM"}]}
{"smiles": "CO[C@]1(C#Cc2nnccc2C)CC[C@@H](C(=O)N2CC[C@](O)(Cn3cnc(Oc4ccc(F)cc4)c(N)c3=O)C(F)(F)C2)[C@H](c2ccccc2)C1", "note": "[Example 170, 5-amino-3-{[(4S)-3,3-difluoro-4-hydroxy-1-[(1R,2R,4R)-4-methoxy-4-[2-(4-methylpyridazin-3-yl)ethynyl]-2-phenylcyclohexanecarbonyl]piperidin-4-yl]methyl}-6-(4-fluorophenoxy)-3,4-dihydropyrimidin-4-one]", "values": [{"measurement": "IC50", "setting": "[1]", "value": 39.8, "unit": "nM"}, {"measurement": "IC50", "setting": "[2]", "value": 0.0219, "unit": "µM"}]}
{"smiles": "Cc1ccnnc1C#C[C@@]1(F)CC[C@@H](C(=O)N2CC[C@](O)(Cn3cnc(Oc4ccc(F)cc4)c(N)c3=O)C(F)(F)C2)[C@H](c2ccccc2)C1", "note": "[Example 171, 5-amino-3-{[(4S)-3,3-difluoro-1-[(1R,2R,4R)-4-fluoro-4-[2-(4-methylpyridazin-3-yl)ethynyl]-2-phenylcyclohexanecarbonyl]-4-hydroxypiperidin-4-yl]methyl}-6-(4-fluorophenoxy)-3,4-dihydropyrimidin-4-one]", "values": [{"measurement": "IC50", "setting": "[1]", "value": 23.8, "unit": "nM"}, {"measurement": "IC50", "setting": "[2]", "value": 0.0168, "unit": "µM"}]}
{"smiles": "Cc1cnnc(C#C[C@@]2(F)CC[C@@H](C(=O)N3CC[C@](O)(Cn4cnc(Oc5ccc(F)cc5)c(N)c4=O)C(F)(F)C3)[C@H](c3ccccc3)C2)c1", "note": "[Example 172, 5-amino-3-{[(4S)-3,3-difluoro-1-[(1R,2R,4R)-4-fluoro-4-[2-(5-methylpyridazin-3-yl)ethynyl]-2-phenylcyclohexanecarbonyl]-4-hydroxypiperidin-4-yl]methyl}-6-(4-fluorophenoxy)-3,4-dihydropyrimidin-4-one]", "values": [{"measurement": "IC50", "setting": "[1]", "value": 5.5, "unit": "nM"}, {"measurement": "IC50", "setting": "[2]", "value": 0.00501, "unit": "µM"}]}
{"smiles": "COc1cnnc(C#C[C@@]2(OC)CC[C@@H](C(=O)N3CC[C@](O)(Cn4cnc(Oc5ccc(F)cc5)c(N)c4=O)C(F)(F)C3)C(c3ccccc3)C2)c1", "note": "(stereo partly drawn) [Example 173, 5-amino-3-{[(4S)-3,3-difluoro-4-hydroxy-1-[(1R,4R)-4-methoxy-4-[2-(5-methoxypyridazin-3-yl)ethynyl]-2-phenylcyclohexanecarbonyl]piperidin-4-yl]methyl}-6-(4-fluorophenoxy)-3,4-dihydropyrimidin-4-one]", "values": [{"measurement": "IC50", "setting": "[1]", "value": 14.6, "unit": "nM"}, {"measurement": "IC50", "setting": "[2]", "value": 0.00521, "unit": "µM"}]}
{"smiles": "CO[C@]1(C#Cc2ncc(C)cn2)CC[C@@H](C(=O)N2CC[C@](O)(Cn3cnc(Oc4ccc(F)cc4)c(N)c3=O)C(F)(F)C2)[C@H](c2ccccc2)C1", "note": "[Example 174, 5-amino-3-{[(4S)-3,3-difluoro-4-hydroxy-1-[(1R,2R,4R)-4-methoxy-4-[2-(5-methylpyrimidin-2-yl)ethynyl]-2-phenylcyclohexanecarbonyl]piperidin-4-yl]methyl}-6-(4-fluorophenoxy)-3,4-dihydropyrimidin-4-one]", "values": [{"measurement": "IC50", "setting": "[1]", "value": 67.7, "unit": "nM"}, {"measurement": "IC50", "setting": "[2]", "value": 0.0174, "unit": "µM"}]}
{"smiles": "CO[C@]1(C#Cc2cncnc2)CC[C@@H](C(=O)N2CC[C@](O)(Cn3cnc(Oc4ccc(F)cc4)c(N)c3=O)C(F)(F)C2)[C@H](c2ccccc2)C1", "note": "[Example 175, 5-amino-3-{[(4S)-3,3-difluoro-4-hydroxy-1-[(1R,2R,4R)-4-methoxy-2-phenyl-4-[2-(pyrimidin-5-yl)ethynyl]cyclohexanecarbonyl]piperidin-4-yl]methyl}-6-(4-fluorophenoxy)-3,4-dihydropyrimidin-4-one]", "values": [{"measurement": "IC50", "setting": "[1]", "value": 54, "unit": "nM"}, {"measurement": "IC50", "setting": "[2]", "value": 0.00998, "unit": "µM"}]}
{"smiles": "CO[C@]1(C#Cc2nccc(C)n2)CC[C@@H](C(=O)N2CC[C@](O)(Cn3cnc(Oc4ccc(F)cc4)c(N)c3=O)C(F)(F)C2)[C@H](c2ccccc2)C1", "note": "[Example 176, 5-amino-3-{[(4S)-3,3-difluoro-4-hydroxy-1-[(1R,2R,4R)-4-methoxy-4-[2-(4-methylpyrimidin-2-yl)ethynyl]-2-phenylcyclohexanecarbonyl]piperidin-4-yl]methyl}-6-(4-fluorophenoxy)-3,4-dihydropyrimidin-4-one]", "values": [{"measurement": "IC50", "setting": "[1]", "value": 77.2, "unit": "nM"}, {"measurement": "IC50", "setting": "[2]", "value": 0.037, "unit": "µM"}]}
{"smiles": "CO[C@]1(C#Cc2cnc(C)nc2)CC[C@@H](C(=O)N2CC[C@](O)(Cn3cnc(Oc4ccc(F)cc4)c(N)c3=O)C(F)(F)C2)[C@H](c2ccccc2)C1", "note": "[Example 177, 5-amino-3-{[(4S)-3,3-difluoro-4-hydroxy-1-[(1R,2R,4R)-4-methoxy-4-[2-(2-methylpyrimidin-5-yl)ethynyl]-2-phenylcyclohexanecarbonyl]piperidin-4-yl]methyl}-6-(4-fluorophenoxy)-3,4-dihydropyrimidin-4-one]", "values": [{"measurement": "IC50", "setting": "[1]", "value": 33.3, "unit": "nM"}, {"measurement": "IC50", "setting": "[2]", "value": 0.0218, "unit": "µM"}]}
